From PubChem BioAssay (NCI)
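Results reflect a 48-hour exposure of cells in 96-well plates to compound at five concentrations. GI50 is the concentration that inhibits growth by half. The concentration for full growth arrest is given as TGI.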

How the values were obtained:
Test in all cases: NCI tumour cell line growth inhibition, 48 h
UO-31 renal = tested on: UO-31 renal
MDA-MB-231 breast = tested on: MDA-MB-231 breast
SK-OV-3 ovarian = tested on: SK-OV-3 ovarian
HOP-62 NSCLC = tested on: HOP-62 NSCLC
T-47D breast = tested on: T-47D breast
HCT-15 colon = tested on: HCT-15 colon
KM12 colon = tested on: KM12 colon
SF-268 CNS = tested on: SF-268 CNS
SK-MEL-5 melanoma = tested on: SK-MEL-5 melanoma
A498 renal = tested on: A498 renal
SN12C renal = tested on: SN12C renal
SF-539 CNS = tested on: SF-539 CNS
OVCAR-4 ovarian = tested on: OVCAR-4 ovarian
RXF 393 renal = tested on: RXF 393 renal
DU-145 prostate = tested on: DU-145 prostate
ACHN renal = tested on: ACHN renal
UACC-62 melanoma = tested on: UACC-62 melanoma
U251 CNS = tested on: U251 CNS
COLO 205 colon = tested on: COLO 205 colon
A549 NSCLC = tested on: A549 NSCLC
MCF7 breast = tested on: MCF7 breast
OVCAR-5 ovarian = tested on: OVCAR-5 ovarian
HS 578T breast = tested on: HS 578T breast
SF-295 CNS = tested on: SF-295 CNS
MALME-3M melanoma = tested on: MALME-3M melanoma
IGROV1 ovarian = tested on: IGROV1 ovarian
HCT-116 colon = tested on: HCT-116 colon

COc1cc2nc(-c3ccc(C(F)(F)F)cc3)cc(OCCCNCC3CCCO3)c2cc1OC (stereo not drawn)
GI50 (UO-31 renal): 2530 nM | TGI (UO-31 renal): 15.6 µM | GI50 (MDA-MB-231 breast): 3.79 µM | TGI (MDA-MB-231 breast): 17 µM | GI50 (SK-OV-3 ovarian): 12.4 µM | TGI (SK-OV-3 ovarian): 25.8 µM | GI50 (HOP-62 NSCLC): 6.01 µM | TGI (HOP-62 NSCLC): 21.4 µM | GI50 (T-47D breast): 4.06 µM | TGI (T-47D breast): 19 µM | GI50 (HCT-15 colon): 3.1 µM | TGI (HCT-15 colon): 12.3 µM | GI50 (KM12 colon): 5.49 µM | TGI (KM12 colon): 20.5 µM | GI50 (SF-268 CNS): 10.4 µM | TGI (SF-268 CNS): 25 µM | GI50 (SK-MEL-5 melanoma): 11.7 µM | TGI (SK-MEL-5 melanoma): 24.7 µM | GI50 (A498 renal): 20.6 µM | TGI (A498 renal): 37 µM | GI50 (SN12C renal): 4.63 µM | TGI (SN12C renal): 18.4 µM | GI50 (SF-539 CNS): 11.2 µM | TGI (SF-539 CNS): 24 µM | GI50 (OVCAR-4 ovarian): 9.01 µM | TGI (OVCAR-4 ovarian): 21.5 µM | GI50 (RXF 393 renal): 1380 nM | TGI (RXF 393 renal): 5.23 µM | GI50 (DU-145 prostate): 9.03 µM | TGI (DU-145 prostate): 21.7 µM | GI50 (ACHN renal): 4.89 µM | TGI (ACHN renal): 18.2 µM | GI50 (UACC-62 melanoma): 3.54 µM | TGI (UACC-62 melanoma): 14.5 µM | GI50 (U251 CNS): 7.37 µM | TGI (U251 CNS): 26.5 µM | GI50 (COLO 205 colon): 3.09 µM | TGI (COLO 205 colon): 17.7 µM | GI50 (A549 NSCLC): 4.43 µM | TGI (A549 NSCLC): 21.2 µM | GI50 (MCF7 breast): 3.23 µM | TGI (MCF7 breast): 15.9 µM | GI50 (OVCAR-5 ovarian): 4.09 µM | TGI (OVCAR-5 ovarian): 17.5 µM | GI50 (HS 578T breast): 10.4 µM | TGI (HS 578T breast): 25.8 µM | GI50 (SF-295 CNS): 8.68 µM | TGI (SF-295 CNS): 22 µM | GI50 (MALME-3M melanoma): 3.17 µM | TGI (MALME-3M melanoma): 13.8 µM | GI50 (IGROV1 ovarian): 4.41 µM | TGI (IGROV1 ovarian): 18.8 µM | GI50 (HCT-116 colon): 3.45 µM
